# Experimental data: patent US10485235B2, “Aryloxypyrimidinyl ethers as herbicides” (FMC Corporation, priority 2015, dated 2019)
# How the values were obtained:
# Type in all cases: in vivo
# [1] = tested on: barnyardgrass (Echinochloa crus-galli); assay: Test A preemergence, barnyardgrass; details: Preemergence, 0 to 100 scale (0 no effect, 100 complete control)
# Excerpt: (§1) Seeds of plant species selected from barnyardgrass (Echinochloa crus-galli), kochia (Kochia scoparia), ragweed (common ragweed, Ambrosia elatior), ryegrass, Italian (Italian ryegrass, Lolium multiflorum), foxtail, giant (giant foxtail, Setaria faberii), and pigweed (Amaranthus retroflexus), were planted into a blend of loam soil and sand and treated preemergence with a directed soil spray using test chemicals formulated in a non-phytotoxic solvent mixture which included a surfactant.
# (§2) At the same time, plants selected from these weed species and also wheat (Triticum aestivum), corn (Zea mays), blackgrass (Alopecurus myosuroides), and galium (catchweed bedstraw, Galium aparine), were planted in pots containing the same blend of loam soil and sand and treated with postemergence applications of test chemicals formulated in the same manner. Plants ranged in height from 2 to 10 cm and were in the one- to two-leaf stage for the postemergence treatment. Treated plants and untreated controls were maintained in a greenhouse for approximately 10 days, after which time all treated plants were compared to untreated controls and visually evaluated for injury. Plant response ratings, summarized in Table A, are based on a 0 to 100 scale where 0 is no effect and 100 is complete control. A dash (—) response means no test result.
# kochia (Kochia scoparia) [2] = assay: Test A preemergence, kochia; details: Preemergence, 0 to 100 scale (0 no effect, 100 complete control)
# Excerpt: as §1, §2
# [3] = tested on: ragweed (common ragweed, Ambrosia elatior); assay: Test A preemergence, ragweed; details: Preemergence, 0 to 100 scale (0 no effect, 100 complete control)
# Excerpt: as §1, §2
# [4] = tested on: ryegrass, Italian (Italian ryegrass, Lolium multiflorum); assay: Test A preemergence, Italian ryegrass; details: Preemergence, 0 to 100 scale (0 no effect, 100 complete control)
# Excerpt: as §1, §2
# [5] = tested on: foxtail, giant (giant foxtail, Setaria faberii); assay: Test A preemergence, giant foxtail; details: Preemergence, 0 to 100 scale (0 no effect, 100 complete control)
# Excerpt: as §1, §2
# [6] = tested on: pigweed (Amaranthus retroflexus); assay: Test A preemergence, pigweed; details: Preemergence, 0 to 100 scale (0 no effect, 100 complete control)
# Excerpt: as §1, §2
# [7] = tested on: barnyardgrass (Echinochloa crus-galli); assay: Test A postemergence, barnyardgrass; details: postemergence, 0 to 100 scale, 0 is no effect, 100 is complete control, approximately 10 days
# Excerpt: as §1, §2
# kochia (Kochia scoparia) [8] = assay: Test A postemergence, kochia; details: postemergence, 0 to 100 scale, 0 is no effect, 100 is complete control, approximately 10 days
# Excerpt: as §1, §2
# [9] = tested on: ragweed (common ragweed, Ambrosia elatior); assay: Test A postemergence, ragweed; details: postemergence, 0 to 100 scale, 0 is no effect, 100 is complete control, approximately 10 days
# Excerpt: as §1, §2
# [10] = tested on: ryegrass, Italian (Italian ryegrass, Lolium multiflorum); assay: Test A postemergence, Italian ryegrass; details: postemergence, 0 to 100 scale, 0 is no effect, 100 is complete control, approximately 10 days
# Excerpt: as §1, §2
# [11] = tested on: foxtail, giant (giant foxtail, Setaria faberii); assay: Test A postemergence, giant foxtail; details: postemergence, 0 to 100 scale, 0 is no effect, 100 is complete control, approximately 10 days
# Excerpt: as §1, §2
# [12] = tested on: pigweed (Amaranthus retroflexus); assay: Test A postemergence, pigweed; details: postemergence, 0 to 100 scale, 0 is no effect, 100 is complete control, approximately 10 days
# Excerpt: as §1, §2
# [13] = tested on: wheat (Triticum aestivum); assay: Test A postemergence, wheat; details: postemergence, 0 to 100 scale, 0 is no effect, 100 is complete control, approximately 10 days
# Excerpt: as §1, §2
# corn (Zea mays) = assay: Test A postemergence, corn; details: postemergence, 0 to 100 scale, 0 is no effect, 100 is complete control, approximately 10 days
# Excerpt: as §1, §2
# [14] = tested on: blackgrass (Alopecurus myosuroides); assay: Test A postemergence, blackgrass; details: postemergence, 0 to 100 scale, 0 is no effect, 100 is complete control, approximately 10 days
# Excerpt: as §1, §2
# [15] = tested on: galium (catchweed bedstraw, Galium aparine); assay: Test A postemergence, galium; details: postemergence, 0 to 100 scale, 0 is no effect, 100 is complete control, approximately 10 days
# Excerpt: as §1, §2
Compound,"Plant response rating, Barnyardgrass ([1]; 31 g ai/ha)","Plant response rating, Barnyardgrass ([1]; 125 g ai/ha)","Plant response rating, Kochia (kochia (Kochia scoparia) [2]; 31 g ai/ha)","Plant response rating, Kochia (kochia (Kochia scoparia) [2]; 125 g ai/ha)","Plant response rating, Ragweed ([3]; 31 g ai/ha)","Plant response rating, Ragweed ([3]; 125 g ai/ha)","Plant response rating, Ryegrass, Italian ([4]; 31 g ai/ha)","Plant response rating, Ryegrass, Italian ([4]; 125 g ai/ha)","Plant response rating, Foxtail, Giant ([5]; 31 g ai/ha)","Plant response rating, Foxtail, Giant ([5]; 125 g ai/ha)","Plant response rating, Pigweed ([6]; 31 g ai/ha)","Plant response rating, Pigweed ([6]; 125 g ai/ha)","Plant response rating, Barnyardgrass ([7]; 31 g ai/ha)","Plant response rating, Barnyardgrass ([7]; 125 g ai/ha)","Plant response rating, Kochia (kochia (Kochia scoparia) [8]; 31 g ai/ha)","Plant response rating, Kochia (kochia (Kochia scoparia) [8]; 125 g ai/ha)","Plant response rating, Ragweed ([9]; 31 g ai/ha)","Plant response rating, Ragweed ([9]; 125 g ai/ha)","Plant response rating, Ryegrass, Italian ([10]; 31 g ai/ha)","Plant response rating, Ryegrass, Italian ([10]; 125 g ai/ha)",also measured
N#Cc1cccc(Oc2ncc(Cl)cn2)c1OC/C=C/Cl [Compound 7],20,100,70,100,0,0,0,10,60,100,60,100,10,90,90,100,0,10,10,50,"Plant response rating, Foxtail, Giant ([11]; 31 g ai/ha): 10; Plant response rating, Foxtail, Giant ([11]; 125 g ai/ha): 90; Plant response rating, Pigweed ([12]; 31 g ai/ha): 60; Plant response rating, Pigweed ([12]; 125 g ai/ha): 90; Plant response rating, Wheat ([13]; 31 g ai/ha): 0; Plant response rating, Wheat ([13]; 125 g ai/ha): 10; Plant response rating, Corn (corn (Zea mays); 31 g ai/ha): 10; Plant response rating, Corn (corn (Zea mays); 125 g ai/ha): 20; Plant response rating, Blackgrass ([14]; 31 g ai/ha): 10; Plant response rating, Blackgrass ([14]; 125 g ai/ha): 30; Plant response rating, Galium ([15]; 31 g ai/ha): 50; Plant response rating, Galium ([15]; 125 g ai/ha): 80"
N#Cc1cccc(Oc2ncc(Cl)cn2)c1OCCCF [Compound 15],0,20,50,100,0,0,0,10,30,90,100,100,60,90,50,80,0,20,0,10,"Plant response rating, Foxtail, Giant ([11]; 31 g ai/ha): 10; Plant response rating, Foxtail, Giant ([11]; 125 g ai/ha): 30; Plant response rating, Pigweed ([12]; 31 g ai/ha): 60; Plant response rating, Pigweed ([12]; 125 g ai/ha): 70; Plant response rating, Wheat ([13]; 31 g ai/ha): 0; Plant response rating, Wheat ([13]; 125 g ai/ha): 0; Plant response rating, Corn (corn (Zea mays); 31 g ai/ha): 10; Plant response rating, Corn (corn (Zea mays); 125 g ai/ha): 10; Plant response rating, Blackgrass ([14]; 31 g ai/ha): 0; Plant response rating, Blackgrass ([14]; 125 g ai/ha): 10; Plant response rating, Galium ([15]; 31 g ai/ha): 20; Plant response rating, Galium ([15]; 125 g ai/ha): 50"
N#Cc1cccc(Oc2ncc(F)cn2)c1OC/C=C/Cl [Compound 36],30,80,10,100,0,0,0,0,30,90,100,100,0,70,80,90,20,40,0,20,"Plant response rating, Foxtail, Giant ([11]; 31 g ai/ha): 0; Plant response rating, Foxtail, Giant ([11]; 125 g ai/ha): 50; Plant response rating, Pigweed ([12]; 31 g ai/ha): 50; Plant response rating, Pigweed ([12]; 125 g ai/ha): 50; Plant response rating, Wheat ([13]; 31 g ai/ha): 0; Plant response rating, Wheat ([13]; 125 g ai/ha): 0; Plant response rating, Corn (corn (Zea mays); 31 g ai/ha): 0; Plant response rating, Corn (corn (Zea mays); 125 g ai/ha): 20; Plant response rating, Blackgrass ([14]; 31 g ai/ha): 10; Plant response rating, Blackgrass ([14]; 125 g ai/ha): 50; Plant response rating, Galium ([15]; 31 g ai/ha): 40; Plant response rating, Galium ([15]; 125 g ai/ha): 50"
N#CCCCOc1c(C#N)cccc1Oc1ncc(F)cn1 [Compound 37],0,20,30,80,30,70,0,0,20,50,100,100,10,20,50,80,30,50,0,0,"Plant response rating, Foxtail, Giant ([11]; 31 g ai/ha): 0; Plant response rating, Foxtail, Giant ([11]; 125 g ai/ha): 10; Plant response rating, Pigweed ([12]; 31 g ai/ha): 60; Plant response rating, Pigweed ([12]; 125 g ai/ha): 70; Plant response rating, Wheat ([13]; 31 g ai/ha): 0; Plant response rating, Wheat ([13]; 125 g ai/ha): 0; Plant response rating, Corn (corn (Zea mays); 31 g ai/ha): 0; Plant response rating, Corn (corn (Zea mays); 125 g ai/ha): 20; Plant response rating, Blackgrass ([14]; 31 g ai/ha): 0; Plant response rating, Blackgrass ([14]; 125 g ai/ha): 10; Plant response rating, Galium ([15]; 31 g ai/ha): 40; Plant response rating, Galium ([15]; 125 g ai/ha): 60"
